The values below come from US6696478B2, “Cancer treatment with Gö6976 and its related compounds” (priority 1999, dated 2004).

The subject of series [1] is human breast cancer cells (MDA-MB-468 and MDA-MB-453). The series is described as follows: Cell viability assay (trypan blue dye exclusion), breast cancer cells, first set. To be noted: for viable cell count: about 5×10^5 cells at start, counted at day 4 (FIG. 2). It is filed as cell-based. The method, then:
MDA-MB-468 human breast cancer cells,
MDA-MB-453 human breast cancer cells,
(§1) These cells were maintained in Dulbecco's modified Eagle medium (DMEM) supplemented with 10 percent bovine calf serum.
(§2) Cells were seeded for 24 hours. Then they were either treated with Gö6976 or left untreated. The cells were then collected periodically and evaluated using trypan blue dye exclusion to asses viability using the method described by CY Chen, et al, in J.Biol. Chem. 273:16700-16709.
In both FIG. 2 and FIG. 3 error bars indicated the estimated standard error based on three independent experiments.

Series [2] has as its system HL60 human acute promyelocytic leukemia cells. The experiment in a line: Cell viability assay (trypan blue), leukemia cells. It is filed as cell-based. To be noted: 2 micromoles Gö6976; 5×10^5 cells at start; after four days (FIG. 4). The protocol:
HL60 human acute promyelocytic leukemia cells were grown in RPMI 1640 medium containing 10 percent heat-inactivated fetal bovine serum (FBS).
as §2
One of two samples of 5×10^5 cells was treated with 2 micromoles of Gö6976 and the viable cells were counted after four days. At four days the cells in the untreated sample had grown by a factor of nearly 10 to almost 5×10^6 cells whereas viable cells in the treated sample was less than 0.2×10^5.

Series [3] concerns Small cell lung cancer cells (NCI-H048). The series is described as follows: Cell viability assay (trypan blue), small cell lung cancer cells. To be noted: treated with Gö6976 (concentration not given); about 5×10^5 cells at start; day 4 (FIG. 5). Type of series: cell-based. The method, then: Small cell lung cancer cells (NCI-H048),
(§3) Small cell lung cancer cells were grown in RPMI 1640 medium with 2 mM L-glutamine adjusted to contain 1.5 g/L sodium bicarbonate, 4.5 g/L glucose, 10 mM HEPES, 1.0 mM sodium pyruvate, and 5% fetal bovine serum. Non-small cell lung cancer cells were grown in RPMI 1640 medium supplemented with 5% fetal bovine serum, 5 ug/ml insulin, 10 ug/ml transferrin, 30 nM sodium selenite, 10 nM hydrocortisone, 10 nM beta-estradiol, 10 mM HEPES, and 2 mM L- glutamine.
as §2
(§4) Two samples each of about 5×10^5 cells small lung cancer cells and non-small lung cancer cells were prepared and one sample of each type was treated with Gö6976 and the viable cells were counted at day 4. In the untreated samples the cancer cells had multiplied by almost a factor of 10 and in the treated samples the count had decreased to less than 0.5 of the original count.

For series [4], the system named is Non-small cell lung cancer cells (NCI-H2342). The experiment in a line: Cell viability assay (trypan blue), non-small cell lung cancer cells. It is filed as cell-based. To be noted: treated with Gö6976 (concentration not given); about 5×10^5 cells at start; day 4 (FIG. 5). The protocol: Non-small cell lung cancer cells (NCI-H2342).
as §3, §2, §4

For series [5], the system named is U-2 OS human osteosacoma cells. The series is described as follows: Cell viability assay (trypan blue), osteosarcoma cells. Type of series: cell-based. To be noted: 2 micromoles Gö6976; about 5×10^5 cells at start; after four days (FIG. 6). The protocol: U-2 OS human osteosacoma cells,
as §1, §2
One of two samples of about 5×10^5 cells was treated with 2 micromoles of Gö6976 and the viable cells were counted after four days.

The subject of series [6] is A431 human epidermoid carcinoma cells. The experiment in a line: Cell viability assay (trypan blue), epidermoid carcinoma cells. Type of series: cell-based. To be noted: 2 micromoles Gö6976; about 5×10^5 cells at start; at four days; untreated grew by a factor of about 24 (FIG. 7). The method, then:
A431 human epidermoid carcinoma cells,
as §1, §2
One of two samples of about 5×10^5 cells was treated with 2 micromoles of Gö6976 and the viable cells were counted each 24 hours for four days.

Series [7] relates to 3Y1 cells overexpressing EGF receptors. The experiment in a line: EGF-induced cell transformation (morphology). Type of series: cell-based, rat.
From the text: (§5) 3Y1 rat fibroblast cells overexpressing the epidermal growth factor receptor (EGFR).
as §1

Series [8] has the same test system. The series is described as follows: Anchorage-independent cell growth in soft agar (EGF-induced colony formation). Type of series: cell-based, rat. To be noted: 100 ng/ml EGF and 250 nanamoles Gö6976; three weeks in soft agar (FIG. 8).
From the text: as §5
For growth of these cells in soft agar, 1×10^3 cells were suspended in top agar (consisting of 20 percent calf serum, 0.38 percent agar and the remainder DMEM) and overlaid onto hardened bottom agar (DMEM, 20 percent calf serum and 0.7 percent agar) as reported by Sementchenko et al, in Onocgen 17:2883-2888.
The effect of Gö6976 on blocking EGF-induced cell transformation was further confirmed by checking anchorage-independent cell growth. […] One sample was left untreated, one was treated with 100 ng/ml of EGF, one sample was treated with 100 ng/ml of EGF and 250 nanamoles of Gö6976 and one sample was treated with 250 nanaomoles of Gö6976. In each case the percentage of cell forming colonies were determined three weeks after suspending the cells in soft agar.

Series [9] concerns normal cells including rat 3Y1 fibroblast. The experiment in a line: Toxic effects on normal cells. It is filed as cell-based. The source says: Toxic effects begin to show up at concentrations of about 5 micromoles in these types of cells.
Series [10] concerns DU145 human prostate cancer cells. The series is described as follows: Cell viability assay (trypan blue), prostate cancer cells, second set. Type of series: cell-based. To be noted: approximately 5×10^5 cells seeded, seven days after treatment. The method, then: DU145 human prostate cancer cells,
as §1
(§6) Cells were seeded for 24 hours. Then they were either treated with Gö6976, C-o 002, or C-o 003, or left untreated. The cells were then collected periodically and evaluated using trypan blue dye exclusion to asses viability using the method described by CY Chen, et al, in J.Biol. Chem. 273:16700-16709.
(§7) Two sets of approximately 5×10^5 DU145 prostate cancer cells, HepG2 liver cancer cells, AGS gastric cancer cells, and T84 colorectal cancers were seeded and 24 hours later one of the sets were treated with 2 μm Gö6976. Seven days after treatment, viable cells were counted.
(§8) Two sets of approximately 5×10^5 human MDA-MB-468 breast cancer cells, DU145 human prostate cancer cells, A549 lung cancer cells, AGS gastric cancer cells, and T84 colorectal cancer cells were seeded and treated with 14 μm C-o 002 and C-o 003 24 hours later. Seven days after treatment, viable cells were counted.

Series [11] deals with AGS human gastric cancer cells. The series is described as follows: Cell viability assay (trypan blue), gastric cancer cells, second set. To be noted: approximately 5×10^5 cells seeded, seven days after treatment. Type of series: cell-based. The method, then:
AGS human gastric cancer cells,
as §1, §6, §7, §8

Series [12] concerns HepG2 human liver cancer cells. The series is described as follows: Cell viability assay (trypan blue), liver cancer cells, second set. It is filed as cell-based. To be noted: seven days after treatment. The method, then: HepG2 human liver cancer cells,
as §1, §6, §7, §8

Series [13] has as its system T84 human colorectal cancer cells. The experiment in a line: Cell viability assay (trypan blue), colorectal cancer cells, second set. To be noted: approximately 5×10^5 cells seeded, seven days after treatment. Type of series: cell-based. The protocol: T84 human colorectal cancer cells,
as §1, §6, §7, §8

For the next series, the system named is C6 glioma cells. The experiment in a line: Cell growth, brain tumor cells, second set. Type of series: cell-based. To be noted: 2 μm Gö6976 for 7 days; approximately 5×10^5 cells seeded (FIG. 10). The protocol:
as §1, §6
(§9) Two sets of approximately 5×10^5 C6 glioma cells and Hela cervical cancer cells were seeded and treated or untreated with 2 μm Gö6976 for 7 days.

The test system of series [14] is Hela human cervical cancer cells. The series is described as follows: Cell growth, cervical cancer cells, second set. Type of series: cell-based. To be noted: 2 μm Gö6976 for 7 days; approximately 5×10^5 cells seeded (FIG. 10). The protocol:
Hela human cervical cancer cells
as §1, §6, §9

For a further series, the system named is PKC α. To be noted: cited from earlier work.
In series [15] the test system is MDA-MB-468 human breast cancer cells. The series is described as follows: Cell viability assay (trypan blue), breast cancer cells, second set. Type of series: cell-based. To be noted: 14 μm compound; approximately 5×10^5 cells seeded; seven days after treatment. The protocol: MDA-MB-468 human breast cancer cells
as §1, §6, §8

Series [16] concerns A549 human lung cancer cells. The experiment in a line: Cell viability assay (trypan blue), lung cancer cells, second set. To be noted: 14 μm compound; approximately 5×10^5 cells seeded; seven days after treatment. It is filed as cell-based. The protocol:
A549 human lung cancer cells,
as §1, §6, §8

Take `Cn1c2ccccc2c2c3c(c4c5ccccc5n(CCC#N)c4c21)CNC3=O` [Gö6976, 12-(2-Cyanoethyl)-6,7,12,13-tetrahydro-13-methyl-5-oxo-5H-indolo[2,3-a]pyrrolo[3,4-c]carbazole]: the viable cell count entry in series [1] (1 micromole Gö6976) is listed as “about 1×10^5”; in series [1] (2.0 micromolar Gö6976), “less than 0.3×10^5”. For the same molecule, the “viable cell concentration over time” value in series [1] (2.0 micromoles Gö6976, measured at 24 hours intervals for 4 days (FIG. 3)) is given as “reduced by approximately half each 24 hours”. Moreover, in series [2], the “viable cells in the treated sample” value is recorded as “less than 0.2×10^5”. Moreover, the “viable cell count relative to the original count” value in [3] and in series [4] was “less than 0.5” throughout. Moreover, the “viable cells in the treated sample relative to the original count” value is on record as “reduced to about half the original count” in [5] and “approximately doubled” in series [6]. For the same molecule, the “toxic effect on 3Y1 EGFR cells” value in series [7] (Gö6976 alone) was “did not show any toxic effect”. In addition, the “EGF-induced cell transformation (transformed morphology)” value in [7] (co-treatment with 250 nanamoles Gö6976 and 100 ng/ml EGF, 24 hours) was “completely blocked”. Also, the “colony forming efficiency of EGF (percentage of cell forming colonies)” value in series [8] was “greatly reduced”. The “toxic effects on normal cells” value in [9] (concentrations used in the first set of experiments) is “no significant toxic effects”. In series [9] (normal cells), the “concentration at which toxic effects begin to show up” value is “about 5 micromoles”. In addition, the viable cells counted in series [10] (2 μm Gö6976) is given as 0; in [11] (2 μm Gö6976), 0; in [12] (2 μm Gö6976, approximately 5×10^5 cells seeded), 0; in [13] (2 μm Gö6976) it was 1.1 × 10^4. The cell growth entry (in the series on C6 glioma cells; in series [14]) was “significant inhibited the growth” in each case. The “TPA-induced downregulation of PKC α” value in the series with PKC α is “prevented TPA-induced downregulation”.

On to `NCCCn1c2ccccc2c2c3c(c4c5ccccc5[nH]c4c21)CNC3` [C-o 002, 12-(3-Aminopropyl)-5,6,7,12,13-pentahydro-indolo[2,3,-a] pyrrolo [3,4-c] carbazole], for which the viable cells counted in series [10] (14 μm compound) is listed as 0; in series [11] (14 μm compound), 0; in [12] (14 μm compound), 0; in series [13] (14 μm compound) it was 1.9 × 10^4; in series [15], 0; in series [16] it was 7 × 10^5.

Take `Cl.NCCCn1c2ccccc2c2c3c(c4c5ccccc5[nH]c4c21)CNC3` [C-o 003, 12-(3-Aminopropyl)-5,6,7,12,13-pentahydro-indolo[2,3,-a] pyrrolo [3,4-c] carbazole hydrochloride]: the viable cells counted in series [10] (14 μm compound) is given as 0; in series [11] (14 μm compound), 0; in [12] (14 μm compound), 0; in [13] (14 μm compound), 2.7 × 10^4; in series [15], 0; in [16] it was 8.5 × 10^5.
